In patent publication US20070021360A1, “Compositions, formulations and kit with anti-sense oligonucleotide and anti-inflammatory steroid and/or obiquinone for treatment of respiratory and lung disesase” (priority 2001, published 2007):

Key:
[1] = system: allergic rabbits; assay: Allergen-induced airway obstruction in allergic rabbits; format: in vivo, rabbit; conditions: compared with mismatched control; from area under the plotted curve; p<0.05
[2] = system: adenosine A1 receptor; assay: Adenosine-induced bronchoconstriction (PC50 Adenosine) in allergic rabbits; format: in vivo; conditions: allergic rabbits
Description: A fortuitous hoology between the rabbit and human DNA sequences within the adenosine A1 gene overlapping the initiation codon permitted the use of the phosphorothioate anti-sense oligonucleotides initially designed for use against the human adenosine A1 receptor in a rabbit model. Neonatal New Zealand white Pasteurella-free rabbits were immunized intraperitoneally within 24 hours of birth with 312 antigen units/ml house dust mite (D. farinae) extract (Berkeley Biologicals, Berkeley, Calif.), mixed with 10% kaolin. Immunizations were repeated weekly for the first month and then biweekly for the next 2 months. At 3-4 months of age, eight sensitized rabbits were anesthetized and relaxed with a mixture of ketamine hydrochloride (44 mg/kg) and acepromazine maleate (0.4 mg/kg) administered intramuscularly. The rabbits were then laid supine in a comfortable position on a small molded, padded animal board and intubated with a 4.0-mm intratracheal tube (Mallinkrodt, Inc., Glens Falls, N.Y.). A polyethylene catheter of external diameter 2.4 mm with an attached latex balloon was passed into the esophagus and maintained at the same distance (approximately 16 cm) from the mouth throughout the experiments. The intratracheal tube was attached to a heated Fleisch pneumotachograph (size 00; DOM Medical, Richmond, Va.), and flow was measured using a Validyne differential pressure transducer (Model DP-45161927; Validyne Engineering Corp., Northridge, Calif.) driven by a Gould carrier amplifier (Model 11-4113; Gould Electronic, Cleveland, Ohio). The esophageal balloon was attached to one side of the differential pressure transducer, and the outflow of the intratracheal tube was connected to the opposite side of the pressure transducer to allow recording of transpulmonary pressure. Flow was integrated to give a continuous tidal volume, and measurements of total lung resistance (RL) and dynamic compliance (Cdyn) were calculated at isovolumetric and flow zero points, respectively, using an automated respiratory analyzer (Model 6; Buxco, Sharon, Conn.). Animals were randomized and on Day 1 pretreatment values for PC50 were obtained for aerosolized adenosine. Anti-sense (HAdA1AS) or mismatched control (HAdA1MM) oligonucleotides were dissolved in sterile physiological saline at a concentration of 5000 μg (5 mg) per 1.0 ml. […] Aerosols of either saline, adenosine, or anti-sense or mismatch oligonucleotides were generated by an ultrasonic nebulizer (DeVilbiss, Somerset, Pa.), producing aerosol droplets 80% of which were smaller than 5:m in diameter. In the first arm of the experiment, four randomly selected allergic rabbits were administered anti-sense oligonucleotide and four the mismatched control oligonucleotide. On the morning of the third day, PC50 values (the concentration of aerosolized adenosine in mg/ml required to reduce the dynamic compliance of the bronchial airway 50% from the baseline value) were obtained and compared to PC50 values obtained for these animals prior to exposure to oligonucleotide. Following a 1 week interval, animals were crossed over, with those previously administered mismatch control oligonucleotide now administered anti-sense oligonucleotide, and those previously treated with anti-sense oligonucleotide now administered mismatch control oligonucleotide. Treatment methods and measurements were identical to those employed in the first arm of the experiment. […] For the purpose of calculation, PC50 values for these animals were set at 20 mg/ml. The values given therefore represent a minimum figure for anti-sense effectiveness. Actual effectiveness was higher.
Aerosols of either adenosine (0-20 mglnml), or anti-sense or one of two mismatch oligonucleotides (5 mg/ml) were separately prepared with an ultrasonic nebulizer (Model 646, DeVilbiss, Somerset, Pa.), which produced aerosol droplets, 80% of which were smaller than 5:m in diameter. […]

[3] = target: T1, adenosine A1 receptor (Oryctolagus cuniculus, UniProt P34970); conditions: mismatch controls; Nyce & Metzger (1997); cited from earlier work
T1 construct: Airway smooth muscle tissue was dissected from each rabbit and a membrane fraction prepared; from tissue; host or cells: rabbit airway smooth muscle, crude plasma membranes
T1 sequence (P34970 1-328): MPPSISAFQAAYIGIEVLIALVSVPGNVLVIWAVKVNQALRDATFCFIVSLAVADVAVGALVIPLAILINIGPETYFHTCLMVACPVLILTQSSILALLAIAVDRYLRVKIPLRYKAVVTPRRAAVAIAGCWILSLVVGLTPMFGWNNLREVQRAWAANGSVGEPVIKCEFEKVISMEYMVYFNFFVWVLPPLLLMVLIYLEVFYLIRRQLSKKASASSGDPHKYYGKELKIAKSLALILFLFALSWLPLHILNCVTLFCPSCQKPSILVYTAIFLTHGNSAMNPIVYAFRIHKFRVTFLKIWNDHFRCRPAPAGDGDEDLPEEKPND

[4] = system: allergic rabbits; assay: Allergen-induced bronchial hyperresponsiveness (PC50 Histamine) in allergic rabbits; format: in vivo, rabbit; conditions: compared to mismatched control; from PC50 Histamine value; p<0.05
Description: Each allergic rabbit was administered histamine by aerosol to determine their baseline hyperresponsiveness. Aerosols of either saline or hitamine were generated using a DeVilbiss nebulizer (DeVilbiss, Somerset, Pa.) for 30 seconds and then for 2 minutes at each dose employed. The ultrasonic nebulizer produced aerosol droplets of which 80% were <5 micron in diameter. The histamine aerosol was administered in increasing concentrations (0.156 to 80 mg/ml) and measurements of pulmonary function were made after each dose. The […] was then determined by calculating the concentration of histamine (mg/ml) required to reduce the Cdyn 50% from baseline (PC50 Histamine)

[5] = system: G6PDH; assay: Enzymatic assay of purified G6PDH; conditions: in vitro; compared to control
Description: All experiments were repeated 4 times.
A second group was added different concentrations of a CoQ of long side chain (in triplicate), and a third group received a CoQ of short side chain (in triplicate), both at various doses in the μM range.
The reaction was started by addition of the enzyme, and the increase in absorbance at 340 nm was measured for 5 minutes. Each data point was conducted in triplicate, and the full experiment was repeated 4 times.

[6] = system: HT-29 SF cells; assay: DHEA effect on cell growth (Coulter counter)
Description: Cell cultures, HT-29 SF cells, which represent a subline of HY-29 cells (ATCC, Rockville, Md.) and are adapted for growth in completely defined serum-free PC-1 medium (Ventrex, Portland, Me.), were obtained. Stock cultures were maintained in this medium at 37° in a humidified atmosphere containing 5% CO2.

[7] = system: HT-29 SF cells; assay: DHEA effect on cell cycle distribution (flow cytometry); format: cell-based, human; conditions: 25, 50, or 200 μM DHEA; 24, 48, 72 hours
Description: Cells were plated at 10^5/60-rm dish in duplicate. […] Cultures were trypsinized following […] and fixed and stained using a modification of a procedure of Bauer et al., Cancer Res., 46, 3173-3178 (1986). Briefly, cells were collected by centrifugation and resuspended in cold phosphate-buffered saline. Cells were fixed in 70% ethanol, washed, and resuspended in phosphate-buffered saline.
After 24, 48, and 72 hours, cells were harvested, fixed in ethanol, and stained with propidium iodide, and the DNA content/cell was determined by flow cytometric analysis. The percentage of cells in G1, S, and G2M phases was calculated using the Cellfit cell cycle analysis program. S phase is marked by a quadrangle for clarity. Representative histograms from duplicate determinations are shown. The experiment was repeated three times.
A transient increase in G2M phase cells was apparent after 48 hours.

Row | Compound | inhibition of allergen-induced airway obstruction [1] | PC50 Adenosine ([2]; Total Dose 0.2 mg) [mg Adenosine] | PC50 Adenosine ([2]; Total Dose 2.0 mg) [mg Adenosine] | PC50 Adenosine ([2]; Total Dose 20 mg) [mg Adenosine] | effect on PC50 Adenosine value ([2]; cross-over experiment, 20 mg total aerosolized oligo) | effect upon any of the targeted receptors (A1, A2 or B2) [3] | inhibition of allergen-induced BHR [4] | inhibition of activity of purified G6PDH [5] [%] | inhibition of growth ([6]; 0-200 μM DHEA, 0-72 hours) | exposure time after which cell number was reduced compared to controls ([6]; 12.5 μM DHEA) [h] | exposure time after which cell number was reduced compared to controls ([6]; 200 μM DHEA) [h] | exposure time after which cell number was reduced compared to controls ([6]; 25 or 50 μM DHEA) [h] | effect on cell cycle distribution [7]
1 | 5′-GTAGGTGGCGGGCAAGGCGGG-3′ (antisense GTAGGTGGCGGGCAAGGCGGG; phosphorothioate, further chemistry not given here) [Oligo A1MM2, mismatch control for anti-sense oligo I, reference compound] | complete lack of effect | 2.51 ± 0.46 | 3.13 ± 0.71 | 3.25 ± 0.34 | no effect | absolutely no effect | complete lack of effect | – | – | – | – | – | –
2 | C[C@]12CC[C@H](O)CC1=CC[C@@H]1[C@@H]2CC[C@]2(C)C(=O)CC[C@@H]12 [DHEA, 3β-hydroxyandrost-5-en-17-one] | – | – | – | – | – | – | – | 72 | time- and dose-dependent inhibition of growth | 72 | 24 | 48 | G1 block
